Results as given in ChEMBL document CHEMBL1130332, “Synthesis of (+)- and ()-2-methylarachidonyl-2-fluoroethylamide (O-689)” (Bioorg Med Chem Lett, 1997).
“And” between values parts separate entries of the source, which are not always exact repeats. Identical values can stand only once.

Legend:
[1] = system: Mus musculus; experiment: Tested for hypothermia in mouse upon intravenous administration; type: functional
[2] = biological target: T1, Cannabinoid receptor 1 (Rattus norvegicus, UniProt P20272); experiment: Compound was evaluated for binding affinity to displace [3H]CP-55940 radioligand from cannabinoid receptor in rat brain P2 membrane; type: cell membranes
[3] = biological target: T1, Cannabinoid receptor 1; experiment: Compound was evaluated for binding affinity towards cannabinoid receptor in rat brain P2 membrane; type: cell membranes
[4] = system: Mus musculus; experiment: Tested for ring immobility in mouse upon intravenous administration; type: functional
[5] = system: Mus musculus; experiment: Tested for in vivo inhibition of locomotor activity in mouse upon intravenous administration; type: functional
[6] = system: Mus musculus; experiment: Tested for in vivo […] by tail-flick method in mouse upon intravenous administration; type: functional

T1 sequence (P20272 whole entry): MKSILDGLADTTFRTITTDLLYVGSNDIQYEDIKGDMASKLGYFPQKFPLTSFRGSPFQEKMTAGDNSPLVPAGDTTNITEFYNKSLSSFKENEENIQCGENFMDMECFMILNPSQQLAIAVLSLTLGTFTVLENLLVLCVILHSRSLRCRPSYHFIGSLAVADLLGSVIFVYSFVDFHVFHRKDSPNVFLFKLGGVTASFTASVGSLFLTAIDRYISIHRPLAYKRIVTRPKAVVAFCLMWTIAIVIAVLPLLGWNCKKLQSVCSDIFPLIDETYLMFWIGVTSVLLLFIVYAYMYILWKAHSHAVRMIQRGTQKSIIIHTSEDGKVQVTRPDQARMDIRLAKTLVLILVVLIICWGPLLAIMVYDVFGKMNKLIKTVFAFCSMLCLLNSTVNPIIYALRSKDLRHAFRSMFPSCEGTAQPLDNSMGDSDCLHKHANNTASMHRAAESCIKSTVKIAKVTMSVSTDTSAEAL

| Structure (SMILES) | ED50 [1] [mg/kg] | Ki [2] [nM] | Ki [3] [nM] | ED50 [4] [mg/kg] | ED50 [5] | ED50 [6] [mg/kg] |
| --- | --- | --- | --- | --- | --- | --- |
| CCCCC/C=C\C/C=C\C/C=C\C/C=C\CCC(C)C(=O)NCCF (racemic) | 2.73 | 21.2 | 5.7 | 1.6 | 1.85 mg/kg and 4.78 mg/kg |  |
| CCCCC/C=C\C/C=C\C/C=C\C/C=C\CCC(C)C(=O)NCCF (stereo in doubt; (+)-4a) | 2.49 | 22.4 |  | 5.27 | 10.2 mg/kg | 2.56 |
| CCCCC/C=C\C/C=C\C/C=C\C/C=C\CCC(C)C(=O)NCCF (single isomer, unassigned; (-)) | 10.1 | 15.3 |  | 2.93 | 2.3 mg/kg | 1.34 |
